From US20160046592A1, “PHARMACEUTICAL COMPOSITION FOR THE TREATMENT OF DIABETES” (Ajinomoto Co., Inc., priority 2013, published 2016)

Molecular target: T1, PPAR-α (Homo sapiens, UniProt Q07869)
T1 construct: expressed in transfected cells; host or cells: CV-1 (African green monkey kidney)
T1 sequence (Q07869 167-468): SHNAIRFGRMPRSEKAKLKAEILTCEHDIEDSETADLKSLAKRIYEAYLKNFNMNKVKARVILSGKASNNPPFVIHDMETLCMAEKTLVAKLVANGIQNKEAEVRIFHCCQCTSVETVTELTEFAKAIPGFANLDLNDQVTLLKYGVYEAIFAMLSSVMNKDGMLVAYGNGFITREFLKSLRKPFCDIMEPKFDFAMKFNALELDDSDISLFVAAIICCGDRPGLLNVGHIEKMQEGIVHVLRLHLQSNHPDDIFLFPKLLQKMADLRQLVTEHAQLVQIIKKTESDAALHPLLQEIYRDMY
Test: Measurement of PPAR-α activity (GAL4 luciferase reporter assay in CV-1 cells)
Type: cell-based
Conditions: 100(A/B): A = maximum PPAR-α activity of test compound at 3, 10, 30 and 100 μM, B = activity of the compound of WO/2011/058154 at 100 μM, 18 to 20 hours, read-out: Relative fold induction (%) of PPAR α
Procedure, shortened: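 CV-1 cells were co-transfected with a UAS×5-TK-Luc reporter and a hGR-GAL4-hPPARα (LBD 167-468aa) expression plasmid, then dosed with compound for 18 to 20 h at 37 °C, with Bright-Glo luciferase read-out. Relative fold induction (%) is the maximum activity at 3, 10, 30 or 100 μM divided by the activity of a WO/2011/058154 reference compound at 100 μM.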

Row | SMILES | Emax
1 | CSc1cc(F)c(F)cc1-c1ccc(OCc2cccc(C(=O)N(CC(=O)O)Cc3cscn3)c2)cc1 [Example 71, 2-[[3-[[4-(4,5-Difluoro-2-methylsulfanyl-phenyl)phenoxy]methyl]benzoyl]-(thiazol-4-ylmethyl)amino]acetic Acid] | 20%
2 | CSc1cc(F)c(F)cc1-c1ccc(OCc2cccc(C(=O)N3C(CC#N)CC[C@H]3C(=O)O)c2)cc1 (stereo partly drawn) [Example 72, (2S)-5-(Cyanomethyl)-1-[3-[[4-(4,5-difluoro-2-methylsulfanyl-phenyl)phenoxy]methyl]benzoyl]pyrrolidine-2-carboxylic Acid] | 12%
3 | CSc1cc(F)c(F)cc1-c1ccc(OCc2cccc(C(=O)N(CC(=O)O)Cc3cn(C)cn3)c2)cc1 [Example 74, 2-[[3-[[4-(4,5-Difluoro-2-methylsulfanyl-phenyl)phenoxy]methyl]benzoyl]-[(1-methylimidazol-4-yl)methyl]amino]acetic Acid] | 16%
4 | N#CCCN(CC(=O)O)C(=O)c1cccc(COc2ccc(-c3cc(F)c(F)c4ccoc34)cc2)c1 [Example 75, 2-[2-Cyanoethyl-[3-[[4-(4,5-difluorobenzofuran-7-yl)phenoxy]methyl]benzoyl]amino]acetic Acid] | 38%
5 | NC(=O)CCN(CC(=O)O)C(=O)c1cccc(COc2ccc(-c3cc(F)c(F)c4ccoc34)cc2)c1 [Example 79, 2-[(3-Amino-3-oxo-propyl)-[3-[[4-(4,5-difluorobenzofuran-7-yl)phenoxy]methyl]benzoyl]amino]acetic Acid] | 7.1%
6 | COC[C@H](C)N(CC(=O)O)C(=O)c1cccc(COc2ccc(-c3cc(F)c(F)c4ccoc34)cc2)c1 [Example 80, 2-[[3-[[4-(4,5-Difluorobenzofuran-7-yl)phenoxy]methyl]benzoyl]-[(1S)-2-methoxy-1-methyl-ethyl]amino]acetic Acid] | 91%
7 | CC(=O)N1CCC(CN(CC(=O)O)C(=O)c2cccc(COc3ccc(-c4cc(F)c(F)c5ccoc45)cc3)c2)CC1 [Example 81, 2-[(1-Acetyl-4-piperidyl)methyl-[3-[[4-(4,5-difluorobenzofuran-7-yl)phenoxy]methyl]benzoyl]amino]acetic Acid] | 6.4%

More lines, now with the values ahead:

Row | Emax | SMILES
8 | 16% | CSc1cc(F)c(F)cc1-c1ccc(OCc2cccc(C(=O)N(CC(=O)O)Cc3nnc(C)o3)c2)cc1 [Example 73, 2-[[3-[[4-(4,5-Difluoro-2-methylsulfanyl-phenyl)phenoxy]methyl]benzoyl]-[(5-methyl-1,3,4-oxadiazol-2-yl)methyl]amino]acetic Acid]
9 | 40% | CS(=O)(=O)CCCN(CC(=O)O)C(=O)c1cccc(COc2ccc(-c3cc(F)c(F)c4ccoc34)cc2)c1 [Example 77, 2-[[3-[[4-(4,5-Difluorobenzofuran-7-yl)phenoxy]methyl]benzoyl]-(3-methylsulfonylpropyl)amino]acetic Acid]
10 | 65% | CO[C@H]1CCN(C(=O)c2cccc(COc3ccc(-c4cc(F)c(F)c5ccoc45)cc3)c2)[C@@H]1C(=O)O [Example 78, (2S,3S)-1-[3-[[4-(4,5-Difluorobenzofuran-7-yl)phenoxy]methyl]benzoyl]-3-methoxy-pyrrolidine-2-carboxylic Acid]
11 | 11% | O=C(O)CN(C(=O)c1cccc(COc2ccc(-c3cc(F)c(F)c4ccoc34)cc2)c1)C1CCNC1=O (centres unmarked) [Example 82, 2-[[3-[[4-(4,5-Difluorobenzofuran-7-yl)phenoxy]methyl]benzoyl]-(2-oxopyrrolidin-3-yl)amino]acetic Acid]
